Measurements as given in US4548923A, “Muramyl peptides and processes for their manufacture” (Ciba Geigy Corporation, priority 1982, dated 1985).

What was measured:
[1] = test for pyrogenity in rabbits (European Pharmacopoeia); type: in vivo; conditions: subcutaneous administration, 30 mg/kg
Text: The test for pyrogenity can be carried out in rabbits in accordance with the instructions given in European Pharmacopoeia, Vol. 2, pages 56-59 (1971).

[2] = test system: Alveolar rat macrophages; test: macrophage activation: cytotoxicity of alveolar rat macrophages against 125I-marked tumour cells; type: cell-based
Procedure: Alveolar rat macrophages are obtained by lung washing, plated out and incubated in vitro for 24 hours either with liposomes that are charged with the active ingredient, or with the active ingredient in physiological salt solution (phosphate buffered saline, PBS), ^125 I-marked tumour cells are added and incubation is continued for a further 72 hours. Subsequently the dead tumour cells are washed away and the number of tumour cells still living is determined on the basis of their radioactivity. […] The specific cytotoxicity [%] is calculated as follows: [formula]
Further details of the above-mentioned test method are described in I. J. Fidler et. al., J. Biol. Response Modifiers 1, 43-55 (1982).

[3] = Active ingredient in 100 μg of lipsomes per 0.2 ml, 0.2 μg/culture
[4] = Active ingredient in 100 μg of lipsomes per 0.2 ml, 2 μg/culture
[5] = Active ingredient in 100 μg of lipsomes per 0.2 ml, 20 μg/culture
[6] = Active ingredient in 0.2 ml of PBS, 0.2 μg/culture
[7] = Active ingredient in 0.2 ml of PBS, 2 μg/culture
[8] = Active ingredient in 100 μg of lipsomes per 0.2 ml, 0.02 μg/culture
[9] = Active ingredient in 0.2 ml of PBS, 0.02 μg/culture

CCCCCCCCCCCCCCCC(=O)OCC(COP(=O)([O-])OCCNC(=O)C(C)NC(=O)CCC(NC(=O)C(C)NC(=O)C(C)OC1C(O)C(CO)OC(O)C1NC(C)=O)C(N)=O)OC(=O)CCCCCCCCCCCCCCC.[Na+] [sodium salt of N-acetylmuramyl-L-alanyl-D-isoglutaminyl-L-alanine-2-(1,2-dipalmitoyl-sn-glycero-3-hydroxyphosphoryloxy)-ethylamide, reference compound]
pyrogenic effect [1]: highly pyrogenic

CCCCCCCCCCCCCCCC(=O)OC[C@H](COP(=O)([O-])OCCNC(=O)[C@H](C)NC(=O)CC[C@@H](NC(=O)[C@H](C)NC(=O)[C@@H](C)O[C@H]1[C@H](O)[C@@H](CO)OC(O)[C@@H]1NC(C)=O)C(=O)OCCCC)OC(=O)CCCCCCCCCCCCCCC.[Na+] (stereo partly drawn) [Active ingredient I, the sodium salt of N-acetylmuramyl-L-alanyl-D-glutamyl-(Cα)-n-butyl ester-(Cγ)-L-alanine-2-(1,2-dipalmitoyl-sn-glycero-3-hydroxyphosphoryloxy)-ethylamide]
Specific cytotoxity [%] [2, 3]: 56% | Specific cytotoxity [%] [2, 4]: 51% | Specific cytotoxity [%] [2, 5]: 44% | Specific cytotoxity [%] [2, 6]: 39% | Specific cytotoxity [%] [2, 7]: 59% | pyrogenic effect [1]: no pyrogenic effect

the sodium salt of N--acetylmuramyl-L-valyl-D-glutamyl-(C α)-n-butyl ester-(Cγ)-L-alanine-2-(1,2-dipalmitoyl-sn-glycero-3-hydroxyphosphoryloxy)-ethylamide [compound IV]
Specific cytotoxity [%] [2, 8]: 64% | Specific cytotoxity [%] [2, 3]: 68% | Specific cytotoxity [%] [2, 4]: 52% | Specific cytotoxity [%] [2, 9]: 23% | Specific cytotoxity [%] [2, 6]: 18% | Specific cytotoxity [%] [2, 7]: 20%

the sodium salt of N--acetylmuramyl-L-α-aminobutyryl-D-glutamyl-(Cα)-n-butyl ester-(Cγ)-L-alanine-2-(1,2-dipalmitoyl-sn-glycero-3-hydroxyphosphoryloxy)-ethyl-amide [compound II]
Specific cytotoxity [%] [2, 3]: 10% | Specific cytotoxity [%] [2, 4]: 23% | Specific cytotoxity [%] [2, 5]: 11% | Specific cytotoxity [%] [2, 6]: 21% | Specific cytotoxity [%] [2, 7]: 48% | Specific cytotoxity [%] ([2]; Active ingredient in 0.2 ml of PBS, 20 μg/culture): 74%

the sodium salt of N-propionylnormuramyl-L-alanyl-D-glutamyl-(Cα)-n-butyl ester-(Cγ)-L-alanine-2-(1,2-dipalmitoyl-sn-glycero-3-hydroxyphosphoryloxy)-ethylamide [Active ingredient II]
Specific cytotoxity [%] [2, 8]: 64% | Specific cytotoxity [%] [2, 3]: 76% | Specific cytotoxity [%] [2, 4]: 79% | Specific cytotoxity [%] [2, 9]: 3% | Specific cytotoxity [%] [2, 6]: 81% | Specific cytotoxity [%] [2, 7]: 47%
